Test systems include HCC-2998 colon; HOP-92 NSCLC; M14 melanoma; RPMI-8226 leukemia; SF-295 CNS; SF-539 CNS; SW-620 colon; MDA-MB-231 breast; T-47D breast; NCI/ADR-RES ovarian.
Common to all, as to experiment: NCI tumour cell line growth inhibition, 48 h

Molecules are shown by their SMILES. Where “and” joins values, the source holds several entries; their conditions need not be identical. Equal entries are not always repeated.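 Assay format: 96-well plates, 48-hour exposure. GI50: concentration for 50% inhibition of growth. Definition used: TGI = concentration required for complete inhibition of growth.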

On to `COc1cc(O)c2c(c1)C(=O)C1=C(C2=O)C(O)C[C@@](C)(O)C1` (stereo partly drawn), for which the TGI in the test on HCC-2998 colon was 2.91 µM; in the test with HOP-92 NSCLC it was 3.57 µM; with M14 melanoma, 2.02 µM; in the test with RPMI-8226 leukemia it was 6.52 µM; in the test on SF-295 CNS, 7.32 µM; with SF-539 CNS, 5.74 µM. The compound further gave a TGI in the test with SW-620 colon of 2.53 µM.
Consider `Cc1ccc(C(=O)NCCN(C)C)c2nc3ccccc3cc12`, for which the TGI in the test on HCC-2998 colon was 13.4 µM; in the test with HOP-92 NSCLC, above 100 µM; with M14 melanoma it was above 100 µM; in the test with RPMI-8226 leukemia, above 100 µM; in the test with SF-295 CNS, 3.8 µM; in the test with SW-620 colon, 3.52 µM.
On to `COc1cc(CCC(=O)NC[C@@H](O)c2ccccc2)ccc1O`, for which the GI50 with HOP-92 NSCLC, in the test on M14 melanoma, in the test on MDA-MB-231 breast, in the test on RPMI-8226 leukemia, with SF-295 CNS and with SF-539 CNS was above 100 µM throughout. Besides, the GI50 with SW-620 colon and in the test on T-47D breast was above 100 µM each time. The TGI in the test on HOP-92 NSCLC, in the test with M14 melanoma, with MDA-MB-231 breast, in the test with RPMI-8226 leukemia, in the test on SF-295 CNS and in the test with SF-539 CNS was above 100 µM throughout. Moreover, the TGI in the test with SW-620 colon and with T-47D breast was above 100 µM each time.
As for `CCCCCCCCCCOC(=O)NCCC`, the TGI with HCC-2998 colon is 76.8 µM; in the test on HOP-92 NSCLC, 48.1 µM; in the test on M14 melanoma, above 100 µM; with RPMI-8226 leukemia it was 43.3 µM; in the test with SF-295 CNS it was above 100 µM; in the test on SF-539 CNS, above 100 µM. The same compound returned a TGI with SW-620 colon above 100 µM.
On to `O=C1CC(CC(OCc2ccccc2)C(OCc2ccccc2)C(COCc2ccccc2)OCc2ccccc2)CC(=O)N1` (stereo not drawn), for which the GI50 in the test with HCC-2998 colon is > 100 µM and 12.9 µM; with M14 melanoma, > 100 µM and 19.8 µM; in the test with NCI/ADR-RES ovarian it was > 100 µM and 12.8 µM; in the test on SF-295 CNS, > 100 µM and 11.2 µM; in the test with SF-539 CNS, > 100 µM and 16.8 µM; in the test with SW-620 colon, > 100 µM and 11.7 µM. The TGI in the test with HCC-2998 colon is > 100 µM and 42.9 µM; with HOP-92 NSCLC, above 100 µM; in the test on M14 melanoma, above 100 µM; with MDA-MB-231 breast, 23.7 µM; with NCI/ADR-RES ovarian it was above 100 µM; in the test on RPMI-8226 leukemia, > 100 µM and 32.8 µM. Moreover, the TGI in the test on SF-295 CNS was > 100 µM and 28.4 µM; in the test with SF-539 CNS, > 100 µM and 35.5 µM; with SW-620 colon it was > 100 µM and 23.9 µM.
In the case of `NC(=O)c1cc(Br)ccc1NC(=O)/C=C/c1ccccc1`, the GI50 is 28.1 µM in the test with HCC-2998 colon; 5.34 µM in the test on HOP-92 NSCLC; 1.96 µM in the test on M14 melanoma; 2.87 µM with MDA-MB-231 breast; 3.29 µM in the test on RPMI-8226 leukemia; 1.33 µM in the test with SF-295 CNS. For the same compound, the GI50 in the test with SF-539 CNS was 1.24 µM; in the test on SW-620 colon, 0.986 µM; in the test on T-47D breast, 3.51 µM. Also, the TGI in the test on HCC-2998 colon was above 100 µM; with HOP-92 NSCLC, 25.8 µM; in the test with M14 melanoma it was above 100 µM; in the test on MDA-MB-231 breast it was above 41.4 µM; in the test on RPMI-8226 leukemia, above 100 µM; with SF-295 CNS it was above 20.3 µM. Moreover, the TGI was 8.57 µM with SF-539 CNS, above 100 µM in the test on SW-620 colon and above 100 µM with T-47D breast.
As for `O=C(O)c1c2c(cc3c(=O)cc(-c4ccccc4)oc13)CCCC2`, the TGI in the test on HCC-2998 colon, with HOP-92 NSCLC, with M14 melanoma, in the test on RPMI-8226 leukemia, with SF-295 CNS and in the test on SF-539 CNS was above 100 µM throughout. For the same compound, in the test with SW-620 colon, the TGI was above 100 µM.
For the compound `O=C(O)CN(c1ccc(F)cc1)S(=O)(=O)c1ccccc1`, the TGI in the test with HOP-92 NSCLC, in the test with M14 melanoma, in the test on RPMI-8226 leukemia, with SF-295 CNS, with SF-539 CNS and in the test on SW-620 colon was above 100 µM throughout.
`COC12OCCN(C)C1=CC(=O)C1(C)N=NCC12` (stereo not drawn): the TGI in the test on HCC-2998 colon, with HOP-92 NSCLC, in the test on M14 melanoma, with RPMI-8226 leukemia, in the test with SF-295 CNS and in the test on SF-539 CNS was above 100 µM each time. This compound registered a TGI with SW-620 colon above 100 µM.
For the compound `CN1CCN(CCCN2c3ccccc3Sc3ccc(Cl)cc32)CC1`, the GI50 in the test with HCC-2998 colon is 3.53 µM; in the test with HOP-92 NSCLC, 0.894 µM; in the test with NCI/ADR-RES ovarian, 6 µM and 44.5 µM; in the test on RPMI-8226 leukemia, 6.16 µM; with SF-295 CNS it was 6 µM and 33.2 µM; with SF-539 CNS, 7.49 µM and 51.6 µM. Also, the GI50 is 5.72 µM and 41.8 µM in the test with SW-620 colon; 5.72 µM and 35.5 µM in the test on T-47D breast. The TGI with HCC-2998 colon is 10.3 µM; in the test on HOP-92 NSCLC, 5.25 µM; in the test on NCI/ADR-RES ovarian, 12.8 µM and 78.6 µM; in the test on RPMI-8226 leukemia, 16 µM; in the test on SF-295 CNS it was 12.8 µM and 55.6 µM; with SF-539 CNS, 14.6 µM and 87.9 µM. Moreover, the TGI in the test on SW-620 colon was 12 µM and 62.5 µM; with T-47D breast, 13 µM and 62.6 µM.
In the case of `CCOC(=O)CN(c1ccccc1)c1nc(=[N+](C)C)ss1`, the TGI was above 100 µM in the test with HCC-2998 colon; 96.8 µM with M14 melanoma; 55.5 µM with RPMI-8226 leukemia; above 100 µM in the test on SF-539 CNS; above 100 µM in the test with SW-620 colon.
For the compound `COc1ccc(-c2[nH]nc(N)c2-c2cc(OC)c(OC)c(OC)c2)cc1`, the GI50 in the test on HCC-2998 colon was 0.0396 µM; with HOP-92 NSCLC it was 0.148 µM; in the test with M14 melanoma it was 0.0281 µM; in the test on MDA-MB-231 breast it was 0.074 µM; with NCI/ADR-RES ovarian, 0.0283 µM; in the test with RPMI-8226 leukemia, 0.0352 µM. The GI50 was 0.0248 µM in the test on SF-295 CNS, 0.0246 µM in the test with SF-539 CNS and 0.0387 µM in the test on SW-620 colon. Moreover, the TGI in the test with HCC-2998 colon was 1.4 µM; in the test with HOP-92 NSCLC, 19.7 µM; with M14 melanoma, 3.46 µM; in the test with MDA-MB-231 breast, above 100 µM; in the test on RPMI-8226 leukemia, 7.69 µM; with SF-295 CNS, above 100 µM. Also, the results for the TGI with SF-539 CNS and with SW-620 colon were 0.0665 µM and above 100 µM, respectively.
On to `CC(C)=NNC(=S)NC12CC3CC(CC(C3)C1)C2`, for which the TGI in the test with HOP-92 NSCLC, with M14 melanoma, in the test on RPMI-8226 leukemia, in the test on SF-295 CNS, in the test with SF-539 CNS and with SW-620 colon was above 100 µM throughout.
